This is an account of results in publication PMC9782626, “Copper(II) Complexes of 5–Fluoro–Salicylaldehyde: Synthesis, Characterization, Antioxidant Properties, Interaction with DNA and Serum Albumins” (Molecules, 2022).

The assay deals with EB–DNA conjugate (CT DNA). Put plainly: EB-displacement studies (fluorescence of EB-DNA conjugate). Format: binding, calf. The following applies: for Stern–Volmer constant Ksv (EB–DNA) / ΔΙ/Ιο, percentage of EB–DNA fluorescence quenching: [EB] = 20 µM, [DNA] = 26 µM; for ΔΙ/Ιο, percentage of EB–DNA fluorescence quenching: 592 nm; for EB–DNA quenching constant kq: from KSV with τo = 23 ns; for EB–DNA relative fluorescence emission intensity I/Io remaining (% of initial): λemission = 592 nm, final value, r up to 0.36. From the text:
EB is a well-known indicator of DNA intercalation, since its insertion in-between adjacent DNA base pairs may lead to the development of effective π–π stacking interactions. A solution containing the EB–DNA adduct presents an intense fluorescence emission band at 592 nm when excited at λex = 540 nm. The addition of a compound intercalating to DNA equally or more tightly than EB into this solution may induce changes to the emission band which are monitored, in order to gain insight into its competition with EB for the DNA intercalation site.
The fluorescence emission spectra of pretreated EB–DNA ([EB] = 20 µM, [DNA] = 26 µM) were recorded in the presence of increasing amounts of the complexes (representatively shown for complex 1 in Figure 6A).
The Stern–Volmer (KSV) constants (Table 6) of the complexes were calculated with the Stern–Volmer equation (Equation (S2)) and Stern–Volmer plots. The KSV values are relatively high (of the […] magnitude), indicating a tight binding to CT DNA. […] The EB–DNA quenching constants (kq) of the compounds (Table 6) were calculated with Equation (S3) (considering τo = 23 ns as the EB–DNA fluorescence lifetime); the kq values are higher than 10^10 M^−1 s^−1 [56], proposing the existence of a static quenching mechanism, which may confirm the interaction with the fluorophore and the displacement of EB. […]
S2Binding studies with CT DNA […]
S2.3 EB -displa cement studie s
The competition of the complexes with EB was investigated by fluorescence emission spectroscopy in order to examine whether the compounds can displace EB from its DNA-EB conjugate. The CT DNA-EB complex was formed by pre-treating 20 μM EB and 26 μM CT DNA in buffer (150 mM NaCl and 15 mM trisodium citrate at pH = 7.0).
The possible displacement of EB by the compounds and su bseq uently t he ir intercalating effect was studied by the stepwise addition of a certain amount of the solution of each […]
compound into the solution of the CT DNA-EB adduct. The solut ions were excited at 540 nm and the emission was monitored from 550-700 nm with λmax= 592- 595 nm and the effe ct of the addition of each compound to the CT-DNA EB solution was recorded. The […]
solution or in the presence of CT DNA or EB under the same experimental conditions (λ ex = 540 nm); therefore, the observed quenching of the EB-DNA solution may be attributed to the displacement of EB from its EB -DNA add uct.
The Stern-Volmer constants (KSV, in M -1) were calculated according by the linear Stern-Volmer equation (eq. S2) [S 4] and the respect ive plots Io/I versus [ compound].
Io =1+ k τ [Q] =1+ K [Q] (eq. S2) […]
where Io and I are the emission intensit ies of the EB-DNA solut ion in the absence and the presence of the compounds , respectively, τo= the average lifetime of the emitting system without the quencher and kq = the quenching constant. Taking τo = 23 ns as the fluorescence lifetime of the EB-DNA adduct [S5], the quenching co nstants (k q, in M -1s-1) of the compounds were calculated according to eq. S3 [S 4]:
S3Albumin -binding studies
In order to investigate if the compounds can bind to carrier proteins like serum albumins, we carried out albumin binding study by tryptophan fluorescence quenching experiments using bo vine serum albumin (BSA, 3 μM) in buffer (containing 15 mM trisodium citrate and 150 mM NaCl at pH 7.0). The quenching of the emission intensity of tryptophan residues of BSA at 343 nm was monitored using the co mpounds as que ncher s with increasing concentration [S4]. The fluo rescence emission spectra of the compounds were also recorded with λex = 295 nm. No fluorescence emission band was recorded and thus it was not related to the compounds . The influence of the inner-filter effect [S6] on the measurements wa s evaluated by equation S4.
Where Icorr = corrected intensity, Imeas = the measured intensity, c = the concentration of the quencher, d = the cuvette (1 cm), ε (λexc ) and ε(λe m) = the ε of the quencher at the excitation […]

As to `O=Cc1cc(F)ccc1[O-].O=Cc1cc(F)ccc1[O-].[Cu+2]` [Complex 1, [Cu(5–F–salo)2]], the “Stern–Volmer constant Ksv (EB–DNA)” value is recorded as 1.56 (±0.02) × 10^5 M^−1; the “ΔΙ/Ιο, percentage of EB–DNA fluorescence quenching” value (“ΔΙ/Ιο, percentage” for short) came to 44.8%; the “EB–DNA quenching constant kq” value is listed as 6.78 (±0.09) × 10^12 M^−1 s^−1; the “EB–DNA relative fluorescence emission intensity I/Io remaining (% of initial)” value is 55.2%.
As for `O=Cc1cc(F)ccc1[O-].[Cl-].[Cu+2].c1ccc(Nc2ccccn2)nc1` [Complex 2, [Cu(5–F–salo)(bipyam)Cl]], the “Stern–Volmer constant Ksv (EB–DNA)” value is on record as 6.23 (±0.11) × 10^4 M^−1; the “ΔΙ/Ιο, percentage” value is 44.5%; the “EB–DNA quenching constant kq” value was 2.71 (±0.05) × 10^12 M^−1 s^−1; the “EB–DNA relative fluorescence emission intensity I/Io remaining (% of initial)” value worked out at 55.5%.
`CO.Cc1ccc2ccc3ccc(C)nc3c2n1.O=Cc1cc(F)ccc1[O-].[Cl-].[Cu+2]` [Complex 3, [Cu(5–F–salo)(neoc)Cl].CH3OH]: the “Stern–Volmer constant Ksv (EB–DNA)” value was 3.35 (±0.05) × 10^4 M^−1; the “ΔΙ/Ιο, percentage” value is 49.1%; the “EB–DNA quenching constant kq” value is recorded as 1.46 (±0.02) × 10^12 M^−1 s^−1; the “EB–DNA relative fluorescence emission intensity I/Io remaining (% of initial)” value worked out at 50.9%.
Regarding `O=Cc1cc(F)ccc1[O-].O=[N+]([O-])[O-].[Cu+2].c1cnc2c(c1)ccc1cccnc12` [Complex 4, [Cu(5–F–salo)(phen)(NO3)]], the “Stern–Volmer constant Ksv (EB–DNA)” value is listed as 6.77 (±0.07) × 10^4 M^−1; the “ΔΙ/Ιο, percentage” value came to 48.4%; the “EB–DNA quenching constant kq” value is 2.94 (±0.03) × 10^12 M^−1 s^−1; the “EB–DNA relative fluorescence emission intensity I/Io remaining (% of initial)” value stood at 51.6%.
`O=Cc1cc(F)ccc1[O-].O=[N+]([O-])[O-].[Cu+2].c1ccc(-c2ccccn2)nc1` [Complex 5, [Cu(5–F–salo)(bipy)(NO3)]]: the “Stern–Volmer constant Ksv (EB–DNA)” value was 3.14 (±0.06) × 10^4 M^−1 and the “EB–DNA quenching constant kq” value is 1.36 (±0.03) × 10^12 M^−1 s^−1.
